Assay results: patent US7192906B2, “Substituted pyrazole derivatives, production process thereof, and herbicide compositions containing the derivatives” (SDS Biotech K.K., priority 2001, dated 2007)

Each compound was assayed on soybean (Glycine max) (assay: Test Example 2 upland soil treatment, crop phytotoxicity). Conditions: Table 5, upland soil treatment, index 0-5.
Type: in vivo
Experimental: (§1) A plastic pot of 130 cm^2 was filled with upland soil. Subsequently, weed seeds of Setaria viridis, Digitaria adscendens, Chenopodium album and Stellaria media, and crop seeds of soybean (Glycine max) and wheat (Triticum aestivum), were sowed and covered with soil of about 1 cm thickness. On the next day after the sowing, the wettable powder prepared in Formulation Example 1 was diluted with water such that the amount of the active ingredient became 1 kg per hectare, and then uniformly applied to the soil surface. On the 21st day after the application, observation and evaluation were carried out according to the aforesaid criteria.
(§2) Herbicidal activity was evaluated based on the following criteria.
(§3) • 5: herbicidal effect of not less than 90%, or phytotoxicity of 90% or more • 4: herbicidal effect of not less than 70% and less than 90%, or phytotoxicity of 70% or more and less than 90% • 3: herbicidal effect of not less than 50% and less than 70%, or phytotoxicity of 50% or more and less than 70% • 2: herbicidal effect of not less than 30% and less than 50%, or phytotoxicity of 30% or more and less than 50% • 1: herbicidal effect of not less than 10% and less than 30%, or phytotoxicity of 10% or more and less than 30% • 0: herbicidal effect of not less than 0% and less than 10%, or phytotoxicity of 0% or more and less than 10%
In the case of `CNC(=O)C(Cn1cc(C)c(-c2ccc(F)c(C)c2)n1)=NOC` [Compound 75], the “Herbicidal activity (phytotoxicity) GM: Soybean (Glycine max)” value (from here on “Herbicidal activity (phytotoxicity) GM”) is reported as 1 (herbicidal effect of not less than 10% and less than 30%, or phytotoxicity of 10% or more and less than 30%). For `CNC(=O)C(Cn1cc(C)c(-c2ccc(F)cc2Cl)n1)=NOC` [Compound 82], the “Herbicidal activity (phytotoxicity) GM” value was 0 (herbicidal effect of not less than 0% and less than 10%, or phytotoxicity of 0% or more and less than 10%).

These compounds were tested on wheat (Triticum aestivum) in the same assay as above. Conditions: Table 5, upland soil treatment, index 0-5.
Type: in vivo
Experimental: as §1, §2, §3
`CNC(=O)C(Cn1cc(C)c(-c2ccc(F)c(C)c2)n1)=NOC` [Compound 75] was tested, and the “Herbicidal activity (phytotoxicity) TA: Wheat (Triticum aestivum)” value (“Herbicidal activity (phytotoxicity) TA” for short) was 0 (herbicidal effect of not less than 0% and less than 10%, or phytotoxicity of 0% or more and less than 10%). With `CNC(=O)C(Cn1cc(C)c(-c2ccc(F)cc2Cl)n1)=NOC` [Compound 82] the “Herbicidal activity (phytotoxicity) TA” value was 0 (herbicidal effect of not less than 0% and less than 10%, or phytotoxicity of 0% or more and less than 10%).

Each compound was assayed on Chenopodium album (assay: Test Example 1 upland field foliage treatment). Conditions: Table 4, upland field foliage treatment, index 0-5.
Type: in vivo
Method in brief: (§4)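 Scores are visual 0–5 ratings of herbicidal effect or crop injury (0: under 10%; 5: 90% or more) taken 21 days after treatment. Plants grew from seed in upland soil for 14 days, then foliage received the compound as a water-diluted wettable powder at 1 kg/ha active ingredient.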
For `CNC(=O)C(Cn1cc(C)c(-c2ccc(F)c(C)c2)n1)=NOC` [Compound 75], the “Herbicidal activity CA: Chenopodium album” value (“Herbicidal activity CA” for short) was 5 (herbicidal effect of not less than 90%, or phytotoxicity of 90% or more). `CNC(=O)C(Cn1cc(C)c(-c2ccc(F)cc2Cl)n1)=NOC` [Compound 82] was tested, and the “Herbicidal activity CA” value was 4 (herbicidal effect of not less than 70% and less than 90%, or phytotoxicity of 70% or more and less than 90%).

Each compound was assayed on Stellaria media (assay: Test Example 1 upland field foliage treatment). Conditions: Table 4, upland field foliage treatment, index 0-5.
Type: in vivo
Method in brief: as §4
With `CNC(=O)C(Cn1cc(C)c(-c2ccc(F)c(C)c2)n1)=NOC` [Compound 75] the “Herbicidal activity SM: Stellaria media” value was 5 (herbicidal effect of not less than 90%, or phytotoxicity of 90% or more). With `CNC(=O)C(Cn1cc(C)c(-c2ccc(F)cc2Cl)n1)=NOC` [Compound 82] the “Herbicidal activity SM: Stellaria media” value was 4 (herbicidal effect of not less than 70% and less than 90%, or phytotoxicity of 70% or more and less than 90%).

These compounds were tested on Setaria viridis (assay: Test Example 1 upland field foliage treatment). Conditions: Table 4, upland field foliage treatment, index 0-5.
Type: in vivo
Method in brief: as §4
For `CNC(=O)C(Cn1cc(C)c(-c2ccc(F)c(C)c2)n1)=NOC` [Compound 75], the “Herbicidal activity SV: Setaria viridis” value was 5 (herbicidal effect of not less than 90%, or phytotoxicity of 90% or more). With `CNC(=O)C(Cn1cc(C)c(-c2ccc(F)cc2Cl)n1)=NOC` [Compound 82] the “Herbicidal activity SV: Setaria viridis” value was 3 (herbicidal effect of not less than 50% and less than 70%, or phytotoxicity of 50% or more and less than 70%).

Each compound was assayed on Digitaria adscendens (assay: Test Example 1 upland field foliage treatment). Conditions: Table 4, upland field foliage treatment, index 0-5.
Type: in vivo
Method in brief: as §4
For `CNC(=O)C(Cn1cc(C)c(-c2ccc(F)c(C)c2)n1)=NOC` [Compound 75], the “Herbicidal activity DA: Digitaria adscendens” value (“Herbicidal activity DA” for short) was 5 (herbicidal effect of not less than 90%, or phytotoxicity of 90% or more). With `CNC(=O)C(Cn1cc(C)c(-c2ccc(F)cc2Cl)n1)=NOC` [Compound 82] the “Herbicidal activity DA” value was 5 (herbicidal effect of not less than 90%, or phytotoxicity of 90% or more).

Each compound was assayed on Chenopodium album (assay: Test Example 2 upland soil treatment). Conditions: Table 5, upland soil treatment, index 0-5.
Type: in vivo
Experimental: as §1, §2, §3
For `CNC(=O)C(Cn1cc(C)c(-c2ccc(F)c(C)c2)n1)=NOC` [Compound 75], the “Herbicidal activity CA” value was 5 (herbicidal effect of not less than 90%, or phytotoxicity of 90% or more). In the case of `CNC(=O)C(Cn1cc(C)c(-c2ccc(F)cc2Cl)n1)=NOC` [Compound 82], the “Herbicidal activity CA” value is reported as 4 (herbicidal effect of not less than 70% and less than 90%, or phytotoxicity of 70% or more and less than 90%).

Each compound was assayed on Stellaria media (assay: Test Example 2 upland soil treatment). Conditions: Table 5, upland soil treatment, index 0-5.
Type: in vivo
Experimental: as §1, §2, §3
For `CNC(=O)C(Cn1cc(C)c(-c2ccc(F)c(C)c2)n1)=NOC` [Compound 75], the “Herbicidal activity SM: Stellaria media” value was 5 (herbicidal effect of not less than 90%, or phytotoxicity of 90% or more). For `CNC(=O)C(Cn1cc(C)c(-c2ccc(F)cc2Cl)n1)=NOC` [Compound 82], the “Herbicidal activity SM: Stellaria media” value was 5 (herbicidal effect of not less than 90%, or phytotoxicity of 90% or more).

These compounds were tested on Setaria viridis (assay: Test Example 2 upland soil treatment). Conditions: Table 5, upland soil treatment, index 0-5.
Type: in vivo
Experimental: as §1, §2, §3
With `CNC(=O)C(Cn1cc(C)c(-c2ccc(F)c(C)c2)n1)=NOC` [Compound 75] the “Herbicidal activity SV: Setaria viridis” value was 4 (herbicidal effect of not less than 70% and less than 90%, or phytotoxicity of 70% or more and less than 90%). For `CNC(=O)C(Cn1cc(C)c(-c2ccc(F)cc2Cl)n1)=NOC` [Compound 82], the “Herbicidal activity SV: Setaria viridis” value was 4 (herbicidal effect of not less than 70% and less than 90%, or phytotoxicity of 70% or more and less than 90%).

These compounds were tested on Digitaria adscendens (assay: Test Example 2 upland soil treatment). Conditions: Table 5, upland soil treatment, index 0-5.
Type: in vivo
Experimental: as §1, §2, §3
For `CNC(=O)C(Cn1cc(C)c(-c2ccc(F)c(C)c2)n1)=NOC` [Compound 75], the “Herbicidal activity DA” value was 4 (herbicidal effect of not less than 70% and less than 90%, or phytotoxicity of 70% or more and less than 90%). For `CNC(=O)C(Cn1cc(C)c(-c2ccc(F)cc2Cl)n1)=NOC` [Compound 82], the “Herbicidal activity DA” value was 5 (herbicidal effect of not less than 90%, or phytotoxicity of 90% or more).

These compounds were tested on soybean (Glycine max) (assay: Test Example 1 upland field foliage treatment, crop phytotoxicity). Conditions: Table 4, upland field foliage treatment, index 0-5.
Type: in vivo
Method in brief: as §4
For `CNC(=O)C(Cn1cc(C)c(-c2ccc(F)c(C)c2)n1)=NOC` [Compound 75], the “Herbicidal activity (phytotoxicity) GM” value was 0 (herbicidal effect of not less than 0% and less than 10%, or phytotoxicity of 0% or more and less than 10%). For `CNC(=O)C(Cn1cc(C)c(-c2ccc(F)cc2Cl)n1)=NOC` [Compound 82], the “Herbicidal activity (phytotoxicity) GM” value was 0 (herbicidal effect of not less than 0% and less than 10%, or phytotoxicity of 0% or more and less than 10%).

What follows are compounds tested on wheat (Triticum aestivum) in the same assay as above. Conditions: Table 4, upland field foliage treatment, index 0-5.
Type: in vivo
Method in brief: as §4
`CNC(=O)C(Cn1cc(C)c(-c2ccc(F)c(C)c2)n1)=NOC` [Compound 75] was tested, and the “Herbicidal activity (phytotoxicity) TA” value was 0 (herbicidal effect of not less than 0% and less than 10%, or phytotoxicity of 0% or more and less than 10%). In the case of `CNC(=O)C(Cn1cc(C)c(-c2ccc(F)cc2Cl)n1)=NOC` [Compound 82], the “Herbicidal activity (phytotoxicity) TA” value is reported as 0 (herbicidal effect of not less than 0% and less than 10%, or phytotoxicity of 0% or more and less than 10%).
